In patent US20210070748A1, “INHIBITORS OF BRUTONS TYROSINE KINASE” (Pharmacyclics LLC, priority 2015, published 2021):
Structures can show the parent of a compound that is named as a salt. Where two headings read alike, the source gives them in different places.

What was measured:
Format in all cases: biochemical
BTK-WT = molecular target: T1, BTK-WT (Homo sapiens, UniProt Q06187); assay: Btk in vitro inhibitory activity (one of Method A TR-FRET, Method B electrophoretic mobility shift, Method C radiometric filter binding); settings: read-out: BTK-WT (IC50)
T1 construct: purified from insect cells as a full-length construct containing an N-terminal 6X-His tag; His6 (N); made in house; host or cells: insect cells (baculovirus Sf21 in Method B)

LCK = LCK (Homo sapiens, UniProt P06239); assay: Inhibition of a panel of kinases, in vitro HotSpot kinase assay: LCK; settings: Table 10, Formula A-I; 1 μM ATP; read-out: LCK (IC50)
JAK3 = molecular target: T2, JAK3 (Homo sapiens, UniProt P52333); assay: Inhibition of a panel of kinases, in vitro HotSpot kinase assay: JAK3; settings: 1 μM ATP, read-out: JAK3 (IC50)
T2 sequence (P52333 1-1124): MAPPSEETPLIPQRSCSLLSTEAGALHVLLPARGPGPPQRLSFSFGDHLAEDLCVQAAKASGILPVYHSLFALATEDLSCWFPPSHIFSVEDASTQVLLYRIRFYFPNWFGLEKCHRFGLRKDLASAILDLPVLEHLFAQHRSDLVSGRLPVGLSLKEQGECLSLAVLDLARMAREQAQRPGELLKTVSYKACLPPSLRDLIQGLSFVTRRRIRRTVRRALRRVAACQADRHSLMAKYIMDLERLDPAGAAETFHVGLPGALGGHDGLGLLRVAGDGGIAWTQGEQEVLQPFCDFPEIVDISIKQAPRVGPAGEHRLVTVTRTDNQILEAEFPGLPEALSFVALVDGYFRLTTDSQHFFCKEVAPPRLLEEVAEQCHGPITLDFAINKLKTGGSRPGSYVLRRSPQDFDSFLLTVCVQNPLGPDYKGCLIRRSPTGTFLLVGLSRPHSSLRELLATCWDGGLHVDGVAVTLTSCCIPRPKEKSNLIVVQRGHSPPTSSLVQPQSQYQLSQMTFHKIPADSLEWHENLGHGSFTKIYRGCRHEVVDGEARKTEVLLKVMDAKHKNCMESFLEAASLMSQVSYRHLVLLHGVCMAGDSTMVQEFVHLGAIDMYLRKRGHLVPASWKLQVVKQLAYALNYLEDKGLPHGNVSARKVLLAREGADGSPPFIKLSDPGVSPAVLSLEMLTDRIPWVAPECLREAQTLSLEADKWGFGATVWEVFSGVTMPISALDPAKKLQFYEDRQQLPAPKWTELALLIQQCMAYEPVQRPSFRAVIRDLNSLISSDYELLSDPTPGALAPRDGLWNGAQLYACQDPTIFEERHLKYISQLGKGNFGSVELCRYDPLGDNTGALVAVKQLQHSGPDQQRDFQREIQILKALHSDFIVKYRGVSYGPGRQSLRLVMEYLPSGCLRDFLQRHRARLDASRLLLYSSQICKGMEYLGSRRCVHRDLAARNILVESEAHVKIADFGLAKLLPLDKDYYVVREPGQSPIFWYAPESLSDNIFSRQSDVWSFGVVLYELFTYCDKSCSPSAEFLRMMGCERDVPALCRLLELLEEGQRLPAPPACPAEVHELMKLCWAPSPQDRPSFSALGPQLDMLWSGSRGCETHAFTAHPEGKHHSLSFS

T1 sequence (Q06187 whole entry): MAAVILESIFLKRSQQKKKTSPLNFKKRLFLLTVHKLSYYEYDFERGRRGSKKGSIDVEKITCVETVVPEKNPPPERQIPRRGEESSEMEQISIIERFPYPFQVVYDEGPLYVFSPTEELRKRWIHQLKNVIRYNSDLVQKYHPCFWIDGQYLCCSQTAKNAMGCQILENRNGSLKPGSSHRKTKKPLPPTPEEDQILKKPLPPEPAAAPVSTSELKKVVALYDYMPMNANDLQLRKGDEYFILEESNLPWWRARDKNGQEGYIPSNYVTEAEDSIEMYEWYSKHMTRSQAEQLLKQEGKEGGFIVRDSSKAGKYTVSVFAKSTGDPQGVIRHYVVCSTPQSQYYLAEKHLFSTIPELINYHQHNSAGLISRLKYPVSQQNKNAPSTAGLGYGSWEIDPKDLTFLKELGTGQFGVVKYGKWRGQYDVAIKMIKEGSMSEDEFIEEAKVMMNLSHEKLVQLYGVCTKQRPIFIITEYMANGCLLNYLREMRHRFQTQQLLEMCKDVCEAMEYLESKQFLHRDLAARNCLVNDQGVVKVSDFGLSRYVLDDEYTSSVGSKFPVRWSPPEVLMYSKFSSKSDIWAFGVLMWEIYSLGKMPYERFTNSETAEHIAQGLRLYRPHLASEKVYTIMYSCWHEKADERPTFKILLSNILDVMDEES
LCK, sequence (P06239 whole entry): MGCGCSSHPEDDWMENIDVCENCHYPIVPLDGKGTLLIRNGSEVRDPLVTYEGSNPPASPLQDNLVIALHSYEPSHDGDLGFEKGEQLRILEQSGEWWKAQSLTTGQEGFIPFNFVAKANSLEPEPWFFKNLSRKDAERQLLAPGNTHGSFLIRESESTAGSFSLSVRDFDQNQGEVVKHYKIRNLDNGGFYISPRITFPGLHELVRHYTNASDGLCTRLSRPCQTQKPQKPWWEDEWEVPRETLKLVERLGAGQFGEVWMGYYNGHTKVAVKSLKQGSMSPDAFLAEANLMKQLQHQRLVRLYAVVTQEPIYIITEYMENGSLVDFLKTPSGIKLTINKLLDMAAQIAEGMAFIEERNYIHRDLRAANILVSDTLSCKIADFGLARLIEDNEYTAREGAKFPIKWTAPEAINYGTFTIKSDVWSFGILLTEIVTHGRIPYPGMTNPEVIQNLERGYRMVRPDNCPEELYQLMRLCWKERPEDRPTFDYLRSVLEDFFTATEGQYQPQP

SMILES	IC50 (BTK-WT; Table 10, Formula A-I)	IC50 (LCK)	IC50 (JAK3; Table 10, Formula A-I)	IC50 (JAK3; Table 11, Formula B-I)	IC50 (BTK-WT; Table 11, Formula B-I)	IC50 (JAK3; Table 12, Formula C-I)	IC50 (BTK-WT; Table 12, Formula C-I)
Cc1cc(Nc2nc(N3CCC[C@@H](NC(=O)Nc4cccnc4)C3)cnc2C(N)=O)sn1 [Example A-11]	≤ 0.1 µM	0.1 to 1 µM	1 to 10 µM				
Cc1cc(Nc2nc(N3CCC[C@@H](NC(=O)Nc4ncc(C)s4)C3)cnc2C(N)=O)sn1 [Example A-12]	0.1 to 1 µM	1 to 10 µM	1 to 10 µM				
COc1cccc(NC(=O)N[C@@H]2CCCN(c3cnc(C(N)=O)c(Nc4cc(C)ns4)n3)C2)c1 [Example A-16, 5-[(3R)-3-{[(3-methoxyphenyl)carbamoyl]amino}piperidin-1-yl]-3-[(3-methyl-1,2-thiazol-5-yl)amino]pyrazine-2-carboxamide]	≤ 0.1 µM	0.1 to 1 µM					
Cc1cc(Nc2nc(N3CCC[C@@H](NC(=O)N4Cc5ccccc5C4)C3)cnc2C(N)=O)sn1 [Example A-17, N-[(3R)-1-{5-carbamoyl-6-[(3-methyl-1,2-thiazol-5-yl)amino]pyrazin-2-yl}piperidin-3-yl]-2,3-dihydro-1H-isoindole-2-carboxamide]	≤ 0.1 µM	0.1 to 1 µM	0.1 to 1 µM				
Cc1cc(Nc2cc(N3CCC[C@@H](NC(=O)N4Cc5ccccc5C4)C3)cnc2C(N)=O)sn1 [Example A-18, N-[(3R)-1-{6-carbamoyl-5-[(3-methyl-1,2-thiazol-5-yl)amino]pyridin-3-yl}piperidin-3-yl]-2,3-dihydro-1H-isoindole-2-carboxamide]	≤ 0.1 µM	> 10 µM	> 10 µM				
Cc1cc(Nc2nc(N3CCC[C@@H](NC(=O)c4ccccc4)C3)cnc2C(N)=O)sn1 [Example A-19, 5-[(3R)-3-benzamidopiperidin-1-yl]-3-[(3-methyl-1,2-thiazol-5-yl)amino]pyrazine-2-carboxamide]	≤ 0.1 µM	0.1 to 1 µM	0.1 to 1 µM				
CC(C)c1ccc(Nc2nc(N3CCC(C(N)=O)CC3)nnc2C(N)=O)cc1 [Example A-91, 3-(4-carbamoylpiperidin-1-yl)-5-(4-isopropylphenylamino)-1,2,4-triazine-6-carboxamide]	0.1 to 1 µM	> 10 µM					
Cc1cc(Nc2nc(NC3CCC(NC(=O)c4ccccc4)CC3)cnc2C(N)=O)sn1 (stereo not shown) [Example B-4, 5-[(4-benzamidocyclohexyl)amino]-3-[(3-methyl-1,2-thiazol-5-yl)amino]pyrazine-2-carboxamide]				< 0.1 µM	≤ 0.1 µM		
Cc1cc(Nc2nc(N(C)[C@H]3CCCN(C(=O)c4ccc(N(C)C)cc4)C3)cnc2C(N)=O)sn1 [Example C-9, 5-{[(3S)-1-[4-(dimethylamino)benzoyl]piperidin-3-yl](methyl)amino}-3-[(3-methyl-1,2-thiazol-5-yl)amino]pyrazine-2-carboxamide]						> 10 µM	1 to 10 µM

More lines, now with the values ahead:

IC50 (BTK-WT; Table 10, Formula A-I)	IC50 (LCK)	IC50 (JAK3; Table 10, Formula A-I)	IC50 (JAK3; Table 11, Formula B-I)	IC50 (BTK-WT; Table 11, Formula B-I)	IC50 (JAK3; Table 12, Formula C-I)	IC50 (BTK-WT; Table 12, Formula C-I)	SMILES
≤ 0.1 µM	< 0.1 µM						NC(=O)c1ncc(N2CCC[C@@H](NC(=O)Nc3cccnc3)C2)nc1Nc1ccc(C2CCN(C3CCCC3)CC2)cc1 [Example A-1, 3-{[4-(1-cyclopentylpiperidin-4-yl)phenyl]amino)-5-[(3R)-3-([(pyridin-3-yl)carbamoyl]amino}piperidin-1-yl]pyrazine-2-carboxamide]
≤ 0.1 µM	< 0.1 µM	0.1 to 1 µM					NC(=O)c1ncc(N2CCC[C@@H](NC(=O)Nc3ccccc3)C2)nc1Nc1ccc(C2CCN(C3CCCC3)CC2)cc1 [Example A-2, 3-{[4-(1-cyclopentylpiperidin-4-yl)phenyl]amino}-5-[(3R)-3-[(phenylcarbamoyl)amino]piperidin-1-yl]pyrazine-2-carboxamide hydrochloride]
≤ 0.1 µM	0.1 to 1 µM						NC(=O)c1ncc(N2CCC[C@@H](NC(=O)NC3CCCCC3)C2)nc1Nc1ccc(C2CCN(C3CCCC3)CC2)cc1 [Example A-3, 5-[(3R)-3-[(cyclohexylcarbamoyl)amino]piperidin-1-yl]-3-{[4-(1-cyclopentylpiperidin-4-yl)phenyl]amino}pyrazine-2-carboxamide]
≤ 0.1 µM	< 0.1 µM	0.1 to 1 µM					Cc1cccc(NC(=O)N[C@@H]2CCCN(c3cnc(C(N)=O)c(Nc4ccc(C5CCN(C6CCCC6)CC5)cc4)n3)C2)c1 [Example A-4, 3-{[4-(1-cyclopentylpiperidin-4-yl)phenyl]amino}-5-[(3R)-3-{[(3-methylphenyl)carbamoyl]amino}piperidin-1-yl]pyrazine-2-carboxamide hydrochloride]
≤ 0.1 µM	0.1 to 1 µM	0.1 to 1 µM					NC(=O)c1ncc(N2CCC[C@@H](NC(=O)N3Cc4ccccc4C3)C2)nc1Nc1ccc(C2CCN(C3CCCC3)CC2)cc1 [Example A-5, N-[(3R)-1-(5-carbamoyl-6-{[4-(1-cyclopentylpiperidin-4-yl)phenyl]amino}pyrazin-2-yl)piperidin-3-yl]-2,3-dihydro-1H-isoindole-2-carboxamide hydrochloride]
≤ 0.1 µM	0.1 to 1 µM	0.1 to 1 µM					CN(C(=O)N[C@@H]1CCCN(c2cnc(C(N)=O)c(Nc3ccc(C4CCN(C5CCCC5)CC4)cc3)n2)C1)c1ccccc1 [Example A-6, 3-{[4-(1-cyclopentylpiperidin-4-yl)phenyl]amino}-5-[(3R)-3-{[methyl(phenyl)carbamoyl]amino}piperidin-1-yl]pyrazine-2-carboxamide]
≤ 0.1 µM	0.1 to 1 µM	0.1 to 1 µM					CN(C)c1ccc(C(=O)N[C@@H]2CCCN(c3cnc(C(N)=O)c(Nc4ccc(C5CCN(C6CCCC6)CC5)cc4)n3)C2)cc1 [Example A-7, 3-{[4-(1-cyclopentylpiperidin-4-yl)phenyl]amino}-5-[(3R)-3-[4-(dimethylamino)benzamido]piperidin-1-yl]pyrazine-2-carboxamide hydrochloride]
≤ 0.1 µM	< 0.1 µM						Cc1cc(Nc2nc(N3CCC[C@@H](NC(=O)Nc4ccccc4)C3)cnc2C(N)=O)sn1 [Example A-9]
≤ 0.1 µM	0.1 to 1 µM	1 to 10 µM					Cc1cccc(NC(=O)N[C@@H]2CCCN(c3cnc(C(N)=O)c(Nc4cc(C)ns4)n3)C2)c1 [Example A-10, 3-[(3-methyl-1,2-thiazol-5-yl)amino]-5-[(3R)-3-{[(3-methylphenyl)carbamoyl]amino}piperidin-1-yl]pyrazine-2-carboxamide]
≤ 0.1 µM	0.1 to 1 µM	1 to 10 µM					Cc1cc(Nc2nc(N3CCC[C@@H](NC(=O)NC4CCCCC4)C3)cnc2C(N)=O)sn1 [Example A-13, 5-[(3R)-3-[(cyclohexylcarbamoyl)amino]piperidin-1-yl]-3-[(3-methyl-1,2-thiazol-5-yl)amino]pyrazine-2-carboxamide]
≤ 0.1 µM	0.1 to 1 µM						Cc1cc(Nc2nc(N3CCC[C@@H](NC(=O)Nc4ccc(F)cc4)C3)cnc2C(N)=O)sn1 [Example A-14]
≤ 0.1 µM	0.1 to 1 µM						COc1ccc(NC(=O)N[C@@H]2CCCN(c3cnc(C(N)=O)c(Nc4cc(C)ns4)n3)C2)cc1 [Example A-15, 5-[(3R)-3-{[(4-methoxyphenyl)carbamoyl]amino}piperidin-1-yl]-3-[(3-methyl-1,2-thiazol-5-yl)amino]pyrazine-2-carboxamide]
≤ 0.1 µM	0.1 to 1 µM						CS(=O)(=O)c1ccc(Nc2nc(N3CCC[C@@H](NC(=O)Nc4ccccc4)C3)cnc2C(N)=O)cc1 [Example A-42, 3-[(4-methanesulfonylphenyl)amino]-5-[(3R)-3-[(phenylcarbamoyl)amino]piperidin-1-yl]pyrazine-2-carboxamide]
≤ 0.1 µM	0.1 to 1 µM						CS(=O)(=O)c1ccc(Nc2nc(N3CCC[C@@H](NC(=O)Nc4cccnc4)C3)cnc2C(N)=O)cc1 [Example A-43, 3-[(4-methanesulfonylphenyl)amino]-5-[(3R)-3-{[(pyridin-3-yl)carbamoyl]amino}piperidin-1-yl]pyrazine-2-carboxamide]
